Assay results from patent US20230108906A1, “SUBSTITUTED BICYCLIC AND TRICYCLIC UREAS AND AMIDES, ANALOGUES THEREOF, AND METHODS USING SAME” (Arbutus Biopharma Corporation, priority 2019, published 2023).
Read-outs that look alike come from different tables or passages of the source.

System: HBV rcDNA in HepDE19 cells
Assay: HepDE19 assay with bDNA quantitation of HBV rcDNA
Assay type: cell-based, hepatitis B virus (HBV)
Protocol: HepDE19 Assay with bDNA Quantitation of HBV rcDNA:
HepDE19 cell culture system is a HepG2 (human hepatocarcinoma) derived cell line that supports HBV DNA replication and cccDNA formation in a tetracycline (Tet)-regulated manner and produces HBV rcDNA and a detectable reporter molecule dependent on the production and maintenance of cccDNA (Guo, et al., 2007, J. Virol. 81:12472-12484).
HepDE19 (50,000 cells/well) were plated in 96-well collagen-coated tissue-culture treated microtiter plates in DMEM/F12 medium supplemented with 10% fetal bovine serum, 1% penicillin-streptomycin and 1 μg/mL tetracycline and incubated in a humidified incubator at 37° C. and 5% CO2 overnight. Next day, the cells were switched to fresh medium without tetracycline and incubated for 4 hours at 37° C. and 5% CO2. The cells were treated with fresh Tet-free medium with compounds at concentrations starting at 25 μM and a serial, […], 8-point, titration series in duplicate. The final DMSO concentration in the assay was 0.5%. The plates were incubated for 7 days in a humidified incubator at 37° C. and 5% CO2. Following a 7 day-incubation, the level of rcDNA present in the inhibitor-treated wells was measured using a Quantigene 2.0 bDNA assay kit (Affymetrix, Santa Clara, Calif.) with HBV specific custom probe set and manufacturers instructions. Concurrently, the effect of compounds on cell viability was assessed using replicate plates, plated at a density of 5,000 cells/well and incubated for 4 days, to determine the ATP content as a measure of cell viability using the cell-titer glo reagent (CTG; Promega Corporation, Madison, Wis.) as per manufacturer's instructions. The plates were read using a Victor luminescence plate reader (PerkinElmer Model 1420 Multilabel counter) and the relative luminescence units (RLU) data generated from each well was calculated as % inhibition of the untreated control wells and analyzed using XL-Fit module in Microsoft Excel to determine EC50 and EC90 (bDNA) and CC50 (CTG) values using a 4-parameter curve fitting algorithm.
Representative compounds of the disclosure were tested for their abilities to inhibit formation of relaxed circular DNA (rcDNA) in a HepDE19 assay, as described elsewhere herein.

[1] = inhibition of rcDNA formation in HepDE19 cells (HepG2 derived), Tet-free medium, 7 day incubation, Quantigene 2.0 bDNA readout, top concentration 25 μM; read-out: DE-19bDNA EC50
[2] = read-out: DE-19bDNA EC50; inhibition of rcDNA formation in HepDE19 cells (HepG2 derived), Tet-free medium, 7 day incubation, Quantigene 2.0 bDNA readout, top concentration 25 μM

| SMILES | EC50 [1] | EC50 [2] |
| --- | --- | --- |
| CN(C(=O)Nc1cc(Cl)c(F)c(Cl)c1)C1COCc2[nH]c(=O)c3cc(F)ccc3c21 (single isomer, unassigned) [Compound 98, 3-(3,5-Dichloro-4-fluorophenyl)-1-(8-fluoro-6-oxo-1,4,5,6-tetrahydro-2H-pyrano[3,4-c]isoquinolin-1-yl)-1-methylurea] | 30 nM |  |
| CC(C)CN(C(=O)Nc1ccc(F)c(F)c1)C1COCc2[nH]c(=O)c3cc(F)ccc3c21 (single isomer, unassigned) [Compound 99, 3-(3,4-Difluorophenyl)-1-(8-fluoro-6-oxo-2,4,5,6-tetrahydro-1H-pyrano[3,4-c]isoquinolin-1-yl)-1-isobutylurea] | 10 nM |  |
| CC(C)CN(C(=O)Nc1ccc(F)c(F)c1)C1COCc2[nH]c(=O)c3cc(F)ccc3c21 (single isomer, unassigned) [Compound 100, 3-(3,4-Difluorophenyl)-1-(8-fluoro-6-oxo-2,4,5,6-tetrahydro-1H-pyrano[3,4-c]isoquinolin-1-yl)-1-isobutylurea] | 430 nM |  |
| CN(C(=O)Nc1ccccc1)C1COCc2[nH]c(=O)c3cc(F)c(F)cc3c21 (single isomer, unassigned) [Compound 101, 1-(8,9-Difluoro-6-oxo-1,4,5,6-tetrahydro-2H-pyrano[3,4-c]isoquinolin-1-yl)-1-methyl-3-phenylurea] |  | 4700 nM |
| CN(C(=O)Nc1ccccc1)C1COCc2[nH]c(=O)c3cc(F)c(F)cc3c21 (single isomer, unassigned) [Compound 102, 1-(8,9-Difluoro-6-oxo-1,4,5,6-tetrahydro-2H-pyrano[3,4-c]isoquinolin-1-yl)-1-methyl-3-phenylurea] |  | 30 nM |
| CN(C(=O)Nc1ccc(F)cc1)C1COCc2[nH]c(=O)c3cc(F)c(F)cc3c21 (single isomer, unassigned) [Compound 103, 1-(8,9-Difluoro-6-oxo-1,4,5,6-tetrahydro-2H-pyrano[3,4-c]isoquinolin-1-yl)-3-(4-fluorophenyl)-1-methylurea] | 5300 nM |  |
| CN(C(=O)Nc1ccc(F)cc1)C1COCc2[nH]c(=O)c3cc(F)c(F)cc3c21 (single isomer, unassigned) [Compound 104, 1-(8,9-Difluoro-6-oxo-1,4,5,6-tetrahydro-2H-pyrano[3,4-c]isoquinolin-1-yl)-3-(4-fluorophenyl)-1-methylurea] | 20 nM |  |
| CN(C(=O)Nc1cc(F)c(F)c(Cl)c1)C1COCc2[nH]c(=O)c3cc(F)ccc3c21 (single isomer, unassigned) [Compound 107, 3-(3-Chloro-4,5-difluorophenyl)-1-(8-fluoro-6-oxo-1,4,5,6-tetrahydro-2H-pyrano[3,4-c]isoquinolin-1-yl)-1-methylurea] | 930 nM |  |
| CN(C(=O)Nc1cc(F)c(F)c(Cl)c1)C1COCc2[nH]c(=O)c3cc(F)ccc3c21 (single isomer, unassigned) [Compound 108, 3-(3-Chloro-4,5-difluorophenyl)-1-(8-fluoro-6-oxo-1,4,5,6-tetrahydro-2H-pyrano[3,4-c]isoquinolin-1-yl)-1-methylurea] | 20 nM |  |
| O=C(Nc1ccc(F)c(Cl)c1)N(CCCO)C1COCc2[nH]c(=O)c3cc(F)ccc3c21 (single isomer, unassigned) [Compound 109, 3-(3-Chloro-4-fluorophenyl)-1-(8-fluoro-6-oxo-1,4,5,6-tetrahydro-2H-pyrano[3,4-c]isoquinolin-1-yl)-1-(3-hydroxypropyl)urea] | 620 nM |  |
| O=C(Nc1ccc(F)c(Cl)c1)N(CCCO)C1COCc2[nH]c(=O)c3cc(F)ccc3c21 (single isomer, unassigned) [Compound 110, 3-(3-Chloro-4-fluorophenyl)-1-(8-fluoro-6-oxo-1,4,5,6-tetrahydro-2H-pyrano[3,4-c]isoquinolin-1-yl)-1-(3-hydroxypropyl)urea] | 20 nM |  |
| CC(C)(O)CN(C(=O)Nc1ccc(F)c(Cl)c1)C1COCc2[nH]c(=O)c3cc(F)ccc3c21 (single isomer, unassigned) [Compound 111, 3-(3-Chloro-4-fluorophenyl)-1-(8-fluoro-6-oxo-1,4,5,6-tetrahydro-2H-pyrano[3,4-c]isoquinolin-1-yl)-1-(2-hydroxy-2-methylpropyl)urea] | 200 nM |  |
| CC(C)(O)CN(C(=O)Nc1ccc(F)c(Cl)c1)C1COCc2[nH]c(=O)c3cc(F)ccc3c21 (single isomer, unassigned) [Compound 112, 3-(3-Chloro-4-fluorophenyl)-1-(8-fluoro-6-oxo-1,4,5,6-tetrahydro-2H-pyrano[3,4-c]isoquinolin-1-yl)-1-(2-hydroxy-2-methylpropyl)urea] | 1900 nM |  |
| CC(C)CN(C(=O)Nc1cc(F)c(F)c(F)c1)C1COCc2[nH]c(=O)c3cc(F)ccc3c21 (single isomer, unassigned) [Compound 113, 1-(8-Fluoro-6-oxo-2,4,5,6-tetrahydro-1H-pyrano[3,4-c]isoquinolin-1-yl)-1-isobutyl-3-(3,4,5-trifluorophenyl)urea] | 20 nM |  |
| CC(C)CN(C(=O)Nc1cc(F)c(F)c(F)c1)C1COCc2[nH]c(=O)c3cc(F)ccc3c21 (single isomer, unassigned) [Compound 114, 1-(8-Fluoro-6-oxo-2,4,5,6-tetrahydro-1H-pyrano[3,4-c]isoquinolin-1-yl)-1-isobutyl-3-(3,4,5-trifluorophenyl)urea] | 410 nM |  |
| CC(C)CN(C(=O)Nc1ccc(F)c(C#N)c1)C1COCc2[nH]c(=O)c3cc(F)ccc3c21 (single isomer, unassigned) [Compound 115, 3-(3-Cyano-4-fluorophenyl)-1-(8-fluoro-6-oxo-1,4,5,6-tetrahydro-2H-pyrano[3,4-c]isoquinolin-1-yl)-1-isobutylurea] | 10 nM |  |
| CC(C)CN(C(=O)Nc1ccc(F)c(C#N)c1)C1COCc2[nH]c(=O)c3cc(F)ccc3c21 (single isomer, unassigned) [Compound 116, 3-(3-Cyano-4-fluorophenyl)-1-(8-fluoro-6-oxo-1,4,5,6-tetrahydro-2H-pyrano[3,4-c]isoquinolin-1-yl)-1-isobutylurea] | 230 nM |  |
| CN(C(=O)Nc1ccc(F)c(F)c1)C1COCc2[nH]c(=O)c3cc(F)c(F)cc3c21 (single isomer, unassigned) [Compound 117, 1-(8,9-Difluoro-6-oxo-1,4,5,6-tetrahydro-2H-pyrano[3,4-c]isoquinolin-1-yl)-3-(3,4-difluorophenyl)-1-methylurea] | 2700 nM |  |
| CN(C(=O)Nc1ccc(F)c(F)c1)C1COCc2[nH]c(=O)c3cc(F)c(F)cc3c21 (single isomer, unassigned) [Compound 118, 1-(8,9-Difluoro-6-oxo-1,4,5,6-tetrahydro-2H-pyrano[3,4-c]isoquinolin-1-yl)-3-(3,4-difluorophenyl)-1-methylurea] | 10 nM |  |
| CN(C(=O)Nc1cccc(Cl)c1)C1COCc2[nH]c(=O)c3cc(F)c(F)cc3c21 (single isomer, unassigned) [Compound 119, 3-(3-Chlorophenyl)-1-(8,9-difluoro-6-oxo-1,4,5,6-tetrahydro-2H-pyrano[3,4-c]isoquinolin-1-yl)-1-methylurea] |  | 1800 nM |
| CN(C(=O)Nc1cccc(Cl)c1)C1COCc2[nH]c(=O)c3cc(F)c(F)cc3c21 (single isomer, unassigned) [Compound 120, 3-(3-Chlorophenyl)-1-(8,9-difluoro-6-oxo-1,4,5,6-tetrahydro-2H-pyrano[3,4-c]isoquinolin-1-yl)-1-methylurea] |  | 10 nM |
| CC(C)CN(C(=O)Nc1ccc(F)c(C#N)c1)C1COCc2[nH]c(=O)c3cc(F)c(F)cc3c21 (single isomer, unassigned) [Compound 121, 3-(3-Cyano-4-fluorophenyl)-1-(8,9-difluoro-6-oxo-1,4,5,6-tetrahydro-2H-pyrano[3,4-c]isoquinolin-1-yl)-1-isobutylurea] | 10 nM |  |
| CC(C)CN(C(=O)Nc1ccc(F)c(C#N)c1)C1COCc2[nH]c(=O)c3cc(F)c(F)cc3c21 (single isomer, unassigned) [Compound 122, 3-(3-Cyano-4-fluorophenyl)-1-(8,9-difluoro-6-oxo-1,4,5,6-tetrahydro-2H-pyrano[3,4-c]isoquinolin-1-yl)-1-isobutylurea] | 120 nM |  |
